Experimental data from patent EP0179667B1, “N6-substituted adenosines” (priority 1984, dated 1986).

How the values were obtained:
conscious rat = test: Antihypertensive evaluation (AHP3): direct monitoring of aortic blood pressure and heart rate; type: in vivo
Source text: This test procedure is described in the following paragraphs. A Method for the Direct Monitoring of Aortic Blood Pressure and Heart Rate from Conscious Rats The continuous monitoring of pulsatile blood pressure (BP) from unrestrained conscious rats surgically equipped with polyethylene cannulas was accomplished by means of a computer assisted data capture scheme (CADCS). The basic elements of the methodology are the cannulation procedure and the CADCS. Cannulation Procedure: Rats were anesthetized with Telazol (1:1 tiletamine HCI and zolazepam HCI); 20-40 mg/kg IM and the descending aorta exposed via a midline incision. Cannulas fabricated from polyethylene tubing were inserted into the aorta via an undersized puncture hole below the renal arteries. […] The cannulas, consisting of a PE100 (0.86 mm ID) body and a PE50 (0.58 mm ID) tip, were attached to a trocar, inserted through the psoas muscle, and passed subcutaneously along the midline of the back and externalized between the ears. The cannulas were anchored to the posas muscle and between the scaluale (3-0 green braided suture). The midline incision was closed in two steps (muscle first, skin second) using continuous over-and over sutures (4-0 chronic). Each rat was then given penicillin 30,000 units subcutaneously (Penicillin G Procaine Sterile Suspension). The rats were fitted with a harness-spring-swivel assembly designed to protect the cannula and to provide the rat relative freedom of movement. […] While on test, each rat received a continuous slow infusion of heparinized saline solution (approximately 400 I or 40 units of heparin per 24 hour period) to prevent clot formation. […] The data were first stored on the data concentrator disk and then transferred to a magnetic tape for analysis and report generation by the main research computer. The overall scheme involved modulating the primary signal from the pressure transducer, generating the primary data set of the one-minute values for systolic, diastolic, and mean blood pressures and heart rate by the in-lab microcomputer and the storage, analysis, and report generation by the main research computer. The transducers were connected to analog signal conditioning mocules. The modules provided a regulated excitation voltage for the transducers, amplification as required to interface the microprocessors and an active low pass filter to compensate for the pressure wave form distortion produced by the flexible, fluid filled, narrow cannula. […] The microcomputer controlled the sequential acqusition of data from the modular interface units through an internal synchronous time-of-day clock/time base generator. […] The microcomputer processed each blood pressure sample as it was received to produce "running average" values for heart rate, and mean, systolic and diastolic blood pressures.

adenosine A2 receptor = biological target: T1, adenosine A2 receptor (Rattus norvegicus, UniProt P30543); test: Adenosine Receptor Binding - A2 Receptor Affinity (RBA2); conditions: [3H]NECA, rat striatal membranes; read-out: RBA-2
T1 construct: 5 mg original tissue weight of rat weight of rat striatal membranes; tissue Pel-Freez (Rogers, Arkansas); host or cells: rat striatum, membrane preparation
Procedure: Adenosine Receptor Binding - A2 Receptor Affinity (RBA2)
Brains from 200-500 g mixed sex Sprague-Dawley rats were purchased from Pel-Freez (Rogers, Arkansas). […] Brains were thawed and then kept on ice while the striata were dissected out. […] When needed, tissue was thawed at room temperature, disrupted in a Polytron, and kept on ice until used.
All incubations were for 60 minutes at 25°C in 12x75 mm glass tubes containing 1 ml Tris with 5 mg original tissue weight of rat weight of rat striatal membranes, 4 nM [^3H]-N-ethyl adenosine-5'-carboxamide ([^3H]NECA), 50 nM N^6-cyclopentyladenosine (to eliminate A1 receptor binding), 10 mM MgCl2, 0.1 units/ml of adenosine deaminase and 1% dimethylsulfoxide. N^6-Cyclopentyladenosine was dissolved at 10 mM in 0.02 N HCI and diluted in Tris. […] Test compounds were dissolved at 10 mM in dimethylsulfoxide on the same day as the experiment, and diluted in dimethylsulfoxide to 100x the final incubation concentration. […] [^3H]NECA was diluted to 40 nM in Tris. The membrane suspension (5 mg/0.79 ml) contained sufficient MgC12 and adenosine deaminase to give 10 mM and 0.1 units/ml, respectively, final concentration in the incubation. For test compounds with lC50 values less than 1 µM, the order of additions was test compound (10 µl), N^6-cyclopentyladenosine (100 µl), [^3H]NECA (100 µl), and membranes (0.79 ml). […] After all additions, the rack of tubes was vortexed, and the tubes were then incubated for 60 min at 25°C in a shaking water bath. The rack of tubes was vortexed an additional time halfway through the incubation.
incubations were terminated by filtration through 2.4 cm GF/B filters under reduced pressure. Each tube was filtered as follows: the contents of the tube were poured onto the filter, 4 ml of ice-cold Tris were added to the tube and the contents poured onto the filter, and the filter was washed twice with 4 ml of ice-cold Tris. The filtration was complete in about twelve seconds.
Nonspecific binding was defined as binding in the presence of 100 µM N^6-cyclopentyladenosine, and specific binding was defined as total binding minus nonspecific binding. The IC50 was calculated by weighed nonlinear least squares curve-fitting to the mass-action equation. [formula] • where Y is cpm bound • T is cpm total binding without drug • S is cpm specific binding without drug • D is the concentration of drug • and K is the IC50 of the drug Weighting factors were calculated under the assumption that the standard deviation was proportional to the predicted value of Y. Nonspecific binding was treated as a very large (infinite) concentration of drug in the computer analysis.

T1 sequence (P30543 whole entry): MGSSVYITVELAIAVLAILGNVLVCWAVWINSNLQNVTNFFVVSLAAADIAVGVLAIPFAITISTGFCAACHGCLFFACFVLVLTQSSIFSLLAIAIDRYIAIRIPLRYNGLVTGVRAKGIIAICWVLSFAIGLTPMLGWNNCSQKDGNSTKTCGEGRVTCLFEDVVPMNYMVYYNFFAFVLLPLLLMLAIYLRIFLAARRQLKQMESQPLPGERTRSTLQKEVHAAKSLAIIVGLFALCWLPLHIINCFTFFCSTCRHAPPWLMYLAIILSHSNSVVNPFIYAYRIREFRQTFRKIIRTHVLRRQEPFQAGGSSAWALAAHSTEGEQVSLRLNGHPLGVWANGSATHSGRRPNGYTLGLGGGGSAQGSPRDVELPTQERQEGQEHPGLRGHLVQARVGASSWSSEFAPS

| Structure (SMILES) | IC50 (adenosine A2 receptor) [µM] | also measured |
| --- | --- | --- |
| COc1ccc2c(c1)C(Nc1ncnc3c1ncn3[C@@H]1O[C@H](CO)[C@@H](O)[C@H]1O)CCC2 (single isomer, unassigned) [Example 5, N6-[1-(7-Methoxy)-tetralinyl]-adenosine] | 0.918 | change in HR (Heart Rate) (conscious rat; 3 mg/kg, Hour 1, conscious rat): 0% |
| COc1ccc2c(c1)C(Nc1ncnc3c1ncn3[C@@H]1O[C@H](CO)[C@@H](O)[C@H]1O)CCC2 (single isomer, unassigned) [Example 8] | 0.407 | – |
| OC[C@H]1O[C@@H](n2cnc3c(NC4CCCc5ccccc54)ncnc32)C(O)[C@@H]1O (stereo in doubt) [Example 1, (R,S)-N^6-[1-Tetralinyl]-adenosine] | 0.476 | change in HR (Heart Rate) (conscious rat; 10 mg/kg, Hour 9, conscious rat): 0% |
| OC[C@H]1O[C@@H](n2cnc3c(NC4CCCc5ccccc54)ncnc32)[C@H](O)[C@@H]1O (stereo partly drawn) [Example 2, (R)-N^6-[1-Tetralinyl]-adenosine] | 0.243 | – |
| OC[C@H]1O[C@H](n2cnc3c(NC4CCCc5ccccc54)ncnc32)[C@H](O)[C@@H]1O (stereo partly drawn) [Example 3, (S)-N^6-[1-Tetralinyl]-adenosine] | 2.03 | change in HR (Heart Rate) (conscious rat; 10 mg/kg, Hour 5, conscious rat): 0% |
| CC1CCc2ccccc2C1Nc1ncnc2c1ncn2[C@@H]1O[C@H](CO)[C@@H](O)[C@H]1O (stereo partly shown) [Example 4, N^6-[1-(2-Methyl)-tetralinyl]-adenosine] | 0.524 | – |
| COc1ccc2c(c1)CCCC2Nc1ncnc2c1ncn2[C@@H]1O[C@H](CO)[C@@H](O)[C@H]1O (stereo partly shown) [Example 6, N^6-[1-(6-Methoxy)-tetralinyl]-adenosine] | 4.37 | – |
| COc1cccc2c1CCCC2Nc1ncnc2c1ncn2[C@@H]1O[C@H](CO)[C@@H](O)[C@H]1O (stereo partly shown) [Example 7, N^6-[5-Methoxy-1-aminotetralin]-adenosine] | 0.324 | – |
| COc1ccc2c(c1)C(Nc1ncnc3c1ncn3[C@H]1O[C@H](CO)[C@@H](O)[C@H]1O)CCC2 (stereo partly drawn) [Example 9, (S)-N^6-(7-methoxy-1-tetralinyl)-adenosine] | 50.5 | change in MAP (Mean Arterial Pressure) (conscious rat; 3 mg/kg, Hour 5, conscious rat): 9% |
| COc1cccc2c1CCC[C@@H]2Nc1ncnc2c1ncn2[C@@H]1O[C@H](CO)[C@@H](O)[C@H]1O [Example 10, (S)-N^6-[5-methoxy-1-aminotetralin]-adenosine] | 0.217 | – |
| CC(=O)Oc1ccccc1C(=O)OC[C@H]1O[C@@H](n2cnc3c(NC4CCCc5ccccc54)ncnc32)[C@H](O)[C@@H]1O (stereo partly shown) [Example 14, N^6-(1-tetralinyl)-5'-O-(O-acetylsalicoyl)adenosine] | 57.1 | – |
| CC(=O)OC[C@H]1O[C@@H](n2cnc3c(NC4CCCc5ccccc54)ncnc32)[C@H](O)[C@@H]1O (stereo partly shown) [Example 15, N^6-(1-tetralinyl)-5'-acetyl-adenosine] | 4.44 | – |
| OC[C@H]1O[C@@H](n2cnc3c(NC4CCCc5c(O)cccc54)ncnc32)[C@H](O)[C@@H]1O (stereo partly shown) [Example 16, N^6-[1-(5-hydroxy)-tetralinyl]-adenosine] | 0.26 | change in HR (Heart Rate) (conscious rat; 3 mg/kg, Hour 9, conscious rat): 0% |
| OC[C@H]1O[C@@H](n2cnc3c(NC4CCCc5ccc(O)cc54)ncnc32)[C@H](O)[C@@H]1O (stereo partly shown) [Example 17] | 0.238 | – |
| Cc1cc(C)c2c(c1)C(Nc1ncnc3c1ncn3[C@@H]1O[C@H](CO)[C@@H](O)[C@H]1O)CCC2 (stereo partly shown) [Example 18, N^6-[1-(5,7-dimethyl)-tetralinya]-adenosine] | 0.366 | – |
| OC[C@H]1O[C@@H](n2cnc3c(NCC4CCc5ccccc54)ncnc32)[C@H](O)[C@@H]1O (stereo partly shown) [Example 21, N^6-[2,3-dihydro-1H-inden-1-yl]methyladenosine] | 0.099 | – |
| OC[C@H]1O[C@@H](n2cnc3c(NCC4=CCc5ccccc54)ncnc32)[C@H](O)[C@@H]1O [Example 22, N^6-[1H-inden-3-yl]methyladenosine] | 0.0655 | – |
| OC[C@H]1O[C@@H](n2cnc3c(NCC4(O)CCCc5ccccc54)ncnc32)[C@H](O)[C@@H]1O (stereo partly shown) [Example 23, N^6-[1-hydroxy-1-tetralinyl]methyl adenosine] | 2.85 | – |
| OC[C@H]1O[C@@H](n2cnc3c(NCC4=CCCc5ccccc54)ncnc32)[C@H](O)[C@@H]1O [Example 24, N^6-[3,4-dihydro-1-naphthalenyl]methyladenosine] | 0.0765 | – |
| OC[C@H]1O[C@@H](n2cnc3c(NCC4(O)CCc5ccccc54)ncnc32)[C@H](O)[C@@H]1O (stereo partly shown) [Example 25, N^6-[2,3-dihydro-1-hydroxy-1H-inden-1-yl]methyladenosine] | 0.987 | – |
| OC[C@H]1O[C@@H](n2cnc3c(NCC4=CCCCc5ccccc54)ncnc32)[C@H](O)[C@@H]1O [Example 26, N^6-(1-benzocycloheptenyl)methyladenosine] | 2.7 | – |
| OC[C@H]1O[C@@H](n2cnc3c(NCC4(O)CCCCc5ccccc54)ncnc32)[C@H](O)[C@@H]1O (stereo partly shown) [Example 27, N^6-(1-hydroxy-1-benzocycloheptyl]methyladenosine] | 4.01 | – |
| OC[C@H]1O[C@@H](n2cnc3c(NCC4CCCCc5ccccc54)ncnc32)[C@H](O)[C@@H]1O (stereo partly shown) [Example 28, N^6-(1-benzocycloheptyl)methyladenosine] | 1.27 | – |
